In PubChem BioAssay (NCI) one finds TGI and GI50 data, which are given here for 17 compounds.

Common to all, as to assay: NCI tumour cell line growth inhibition, 48 h
The test system of assay [1] is KM20L2 colon.
Assay [2] relates to DLD-1 colon.
For assay [3], the system named is LXFL 529 NSCLC.
In assay [4] the test system is M19-MEL melanoma.
Assay [5] has as its system DMS 273 small cell lung.
Assay [6] concerns XF 498 CNS.
For assay [7], the system named is P388 leukemia.
For assay [8], the system named is P388/ADR leukemia.
Assay [9] deals with SN12K1 renal.
The subject of assay [10] is RXF-631 renal.

SMILES strings stand for the structures. Where “and” joins values, the source holds several entries; their conditions need not be identical. Identical values can stand only once.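 Growth conditions: 96-well plates. Treatment: test compound, 48 hours, 5 concentrations. Analysis: linear interpolation between bracketing concentrations; unreached endpoints set to highest concentration. GI50 is the concentration that inhibits growth by half. The concentration for full growth arrest is given as TGI.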 Bounds are passed on as bounds.

In the case of `COc1ccc(/C=C(\C2=NC(=O)CS2)c2nc3ccccc3[nH]2)cc1`, the TGI in assay [1] was > 100 µM; in assay [2] it was > 100 µM; in assay [3] it was > 100 µM; in assay [4], > 100 µM; in assay [5] it was > 100 µM; in assay [6], 81.5 µM.

Turning to `COc1ccc(OC)c(-c2cc(=O)c3cc4c(cc3[nH]2)OCO4)c1`, the TGI in assay [1] was 23.7 µM; in assay [2] it was > 100 µM; in [3] it was 49.6 µM; in assay [4], > 100 µM; in assay [5] it was 20.9 µM; in assay [6] it was 35.9 µM.

Regarding `O=P(Nc1cccc(Cl)c1)(Oc1ccccc1)N(CCCl)CCCl` (stereo not given), the TGI was 26.7 µM in [1]; 30.5 µM in assay [2]; 24.6 µM in assay [3]; 32.8 µM in assay [4]; 27.3 µM in assay [5].

Turning to `NC(CS)C(=O)NCCNc1ccc(NCCNC(=O)C(N)CS)c2c1C(=O)c1c(O)ccc(O)c1C2=O` (stereo not given), the GI50 in assay [1] is 0.195 µM; in assay [2], 0.0638 µM; in assay [3], 0.0673 µM; in assay [4], 0.138 µM. For the same compound, the TGI in assay [1] is 1.49 µM and 1.37 µM; in assay [2], 1.03 µM and 0.762 µM; in assay [3], 0.927 µM and 0.631 µM; in assay [4] it was 0.863 µM and 1.01 µM; in [6], 0.463 µM.

In the case of `C[C@]12CCC(=O)C=C1CC[C@@H]1C2CC[C@@]2(C)C1CC[C@@H]2OC(=O)C12OC1CCC2=O` (stereo not given in full), the TGI in assay [1] was 34.3 µM; in assay [3] it was 28 µM; in assay [4] it was 30.3 µM; in assay [5], 31.1 µM; in assay [6], 27.9 µM.

Take `COCC1N=C(c2cc(OC)c(OC)c(OC)c2-c2cc3c(cc2[C@@H](C)O)OCO3)O[C@H]1c1ccccc1` (stereo not given in full): the TGI in assay [1], in assay [2], in assay [7], in assay [4], in [8] and in assay [5] was > 100 µM in each case. For the same compound, the TGI in assay [9] is > 100 µM.

`O=C1C(=Cc2ccc([N+](=O)[O-])o2)C(=O)N(CCc2ccccc2)S(=O)(=O)N1CCc1ccccc1`: the TGI was > 100 µM in assay [1]; 34.1 µM in assay [2]; 30.6 µM in assay [3]; 31.7 µM in assay [4]; > 100 µM in assay [5]; 34.9 µM in assay [6].

Turning to `O=C(CSc1nnc(-c2ccc(N=Cc3ccc(Cl)cc3)cc2)o1)Nc1cccc([N+](=O)[O-])c1`, the TGI in assay [1], in [3], in assay [4] and in [5] was > 100 µM in each case.

Turning to `COC(=O)CC1NC(=O)C1C(C)(OC)OC` (stereo not given), the TGI in assay [10], in assay [1], in assay [2], in assay [3], in [4] and in [5] was > 100 µM in each case. For the same compound, the TGI in [6] is > 100 µM.

For the compound `Nc1ccn(CCCC(c2ccccc2)P(=O)(O)O)c(=O)n1` (stereo not given), the TGI in [1], in assay [2], in assay [3], in assay [4] and in assay [5] was > 100 µM in each case.

With `Cc1cc(=O)[nH]c(NNC(C#N)c2ccc(N(C)C)cc2)n1` (stereo not given), the TGI in [1], in assay [2], in assay [4] and in assay [5] was > 100 µM each time.

On to `CN(C)CCNC(=O)c1cccc2[nH]c(-c3ccc(Cl)cc3)nc12`, for which the TGI came out at 18.6 µM in [1]; 24.5 µM in assay [2]; 14.5 µM in assay [7]; 19.7 µM in [4]; 18.4 µM in assay [8]; 14.3 µM in assay [5]. Besides, the TGI stood at 17.6 µM in assay [6] and 14.8 µM in assay [9].

Take `CC(=O)Nc1ccc(C(=O)n2[nH]c(C)c(/C=C3\C(=O)C=Cc4ccccc43)c2=O)cc1`: the TGI in assay [2], in assay [4], in assay [5] and in [6] was > 100 µM each time.

Take `O=C1NC2OC(CO)C(O)C(O)C2O1` (stereo not given): the TGI in assay [1], in [2], in assay [3], in assay [4] and in [5] was > 100 µM throughout.

`COc1ccc(C2NC3=C(CCCC3)N2)cc1`: the TGI is 80.8 µM in assay [1]; > 100 µM in assay [2]; > 100 µM in assay [3]; > 100 µM in assay [4]; > 100 µM in assay [5]; > 100 µM in [6].

Take `Brc1ccc(C[N+]23CN4CN(CN(C4)C2)C3)cc1`: the TGI in [1] is > 100 µM; in assay [4], > 100 µM; in assay [5], 52.9 µM.

Turning to `COc1cc(CC(=O)c2cc3c(cc2-c2ccccc2)OCO3)cc(OC)c1OC`, the TGI in assay [1] is > 100 µM; in [2], > 100 µM; in assay [3] it was > 100 µM; in assay [5], > 100 µM; in assay [6] it was 77.3 µM.
